Source: ChEMBL document CHEMBL3988181, “GlaxoSmithKline Published Kinase Inhibitor Set 2 Onchocerca lienalis Screening Data”

Assay: GSK PKIS2: Screen against O. lienalis microfilariae, single point, at 3.1uM to assess reduction in motility. Compounds were also tested for cytotoxicity against Rhesus Monkey LLCMK2 cells.
Type: functional, Onchocerca lienalis, LLC-MK2
Settings: CELL_LINE LLCMK2; CELL_SUPPLIER ECACC; CONC 3.1 uM; ORGANISM_SUPPLIER Extracted from peri-umbilical skin obtained from naturally infected cattle in the UK; temperature 37 degree C

| SMILES | MOTILITY REDUCTION/CYTOTOXICITY [%] |
| --- | --- |
| c1ccc(Oc2ccc(Nc3ccnc4cc(-c5ccc(CN6CCNCC6)o5)ccc34)cc2)nc1 | 0 |
| NCC(NC(=O)c1cc(-c2cccnc2)c(-c2ccnc3[nH]ccc23)s1)c1ccccc1 (stereo not given) | 0 |
| O=c1cc(N2CCOCC2)nc2n(Cc3cccc(Cl)c3Cl)c3ccccc3n12 | 0 |
| Cc1ccc(NC(=O)c2ccc(Cl)cc2)cc1-c1ccc(C(=O)Nc2ccncc2)cc1 | 66.7 |
| Cc1ccc(NC(=O)c2cccc(C#N)c2)cc1-c1ccc(C(=O)Nc2ccncc2)cc1 | 73.4 |
| CCS(=O)(=O)c1ccc(OC)c(Nc2nccc(-c3c(-c4cccc(NC(=O)c5c(F)cccc5F)c4)nn4ncccc34)n2)c1 | 33.4 |
| CC(C)c1cc(-c2ccc3c(N)n[nH]c3c2)nc(N)n1 | 0 |
| COc1cccc(-c2[nH]c(-c3ccccc3)nc2-c2ccncc2)c1 | 33.4 |
| Nc1nc(-c2ccccn2)c(-c2ccnc3ccccc23)s1 | 0 |
| C[C@@H](Oc1cc(-n2cnc3cc(-c4ccnc(NCCS(C)(=O)=O)c4)ccc32)sc1C(N)=O)c1ccccc1Cl | 53.4 |
| Cc1ccc(C(=O)NC2CCCC2)cc1-c1ccc(C(=O)NCC2CC2)cc1 | 20 |
| Cc1cccc(-c2cc(Nc3ccncc3)c3ccccc3n2)n1 | 0 |
| O=C(Nc1cccc(-c2nn3ncccc3c2-c2ccnc(Nc3cccc(C(F)(F)F)c3)n2)c1)c1c(F)cccc1F | 0 |
| NS(=O)(=O)c1cccc(-c2ccc3nccc(-c4cccc(S(N)(=O)=O)c4)c3c2)c1 | 0 |
| Nc1ncnc2occ(-c3ccc(NC(=O)Nc4cc(C(F)(F)F)ccc4F)cc3)c12 [GW770249X] | 0 |
| CCn1c(-c2ccoc2)nc2cnccc21 | 0 |
| O=C1NC(=O)C(c2ccc(Cl)cc2)=C1Nc1cccc(O)c1 | 13.4 |
| CC(C)Nc1cc(-c2ccc3c(N)n[nH]c3c2)nc(N)n1 | 60 |
| COc1cccc(C2=C(N(C)c3ccccc3)C(=O)NC2=O)c1 | 0 |
| Cc1ccc(C)c(NC(=O)NCCNc2ccnc(Nc3ccc(F)cc3)n2)c1 | 86.7 |
| Cc1c(Cn2ccn3c(=O)nc(N4CCOCC4)cc23)cccc1C(F)(F)F | 0 |
| CSc1nn2c(=O)cc(N3CCOCC3)nc2n1Cc1cccc(Cl)c1Cl | 46.7 |
| O=C(Nc1ccc2c(c1)OCO2)NC1CCN(c2ccnc(NCc3ccc(F)cc3)n2)CC1 | 33.4 |
| COc1ccc(C)c(Nc2ccnc(Nc3ccc(-c4cnc[nH]4)cc3)n2)c1 | 0 |
| Nc1nccc(-c2c(-c3ccc(F)cc3)ncn2C2CCN(Cc3ccccc3)CC2)n1 | 0 |
| CSc1cccc2c(-c3ccncn3)c(-c3ccc(F)cc3)nn12 | 33.4 |
| O=C(Nc1n[nH]c2nc(-c3ccc(O)cc3)ccc12)C1CC1 | 33.4 |

| SMILES | MOTILITY REDUCTION/CYTOTOXICITY [%] |
| --- | --- |
| COc1cc2ncn(-c3cc(OCc4sccc4Cl)c(C(N)=O)s3)c2cc1OC | 13.4 |
| NC(=O)c1sc(-n2cnc3ccccc32)cc1OCc1ccccc1F | 20 |
| Nc1nc(-c2cccnc2)c(-c2ccnc3ccccc23)s1 | 33.4 |
| O=c1cc(N2CCOCC2)nc2n(Cc3cccc(C(F)(F)F)c3)ccn12 | 26.7 |
| Cc1ccc(S(=O)(=O)Nc2ccc(Nc3nccc(Nc4cccc5[nH]ncc45)n3)cc2)cc1 | 0 |
| c1ccc(Oc2ccc(Nc3ccnc4cc(-c5ccc(CN6CCCCC6)o5)ccc34)cc2)nc1 | 20 |
| CCn1c(-c2nonc2N)nc2c(C#CC(C)(C)O)ncc(OCCCCN)c21 | 13.4 |
| O=C1NC(=O)C(c2ccc(Cl)cc2)=C1Nc1cccc(Cl)c1 | 33.4 |
| COc1ccc(C[C@@H](CN)NC(=O)c2cc(Br)c(-c3ccnc4[nH]ccc34)s2)cc1 | 33.4 |
| Nc1nc(Nc2ccccc2)cc(-c2ccc3c(N)n[nH]c3c2)n1 | 0 |
| Cc1cccc(-c2nc(Nc3ccncc3)c3sccc3n2)n1 | 46.7 |
| O=c1cc(N2CCOCC2)nc2n(Cc3cccc(F)c3)ccn12 | 0 |
| Cc1n[nH]c2cc(Nc3ccnc(Nc4cccc(CN5CCOCC5)c4)n3)ccc12 | 0 |
| Fc1ccc(-c2nn3c(OCC(F)(F)F)cccc3c2-c2ccncc2)cc1 | 13.4 |
| CN(C(=O)c1ccc(-c2cc(-c3c[nH]nc3-c3ccccn3)ccn2)cc1)C1CCOCC1 | 0 |
| CNc1nccc(-c2c(-c3ccc(F)cc3)ncn2CCCN2CCOCC2)n1 | 0 |
| CC(=O)N1CCN(c2ccc(Nc3nccc(-c4sc(C(C)C)nc4-c4cccc(NS(=O)(=O)c5cccc(Cl)c5)c4)n3)cn2)CC1 | 0 |
| CNc1nc(-c2ccc3c(N)n[nH]c3c2)cc(N2C[C@@H](C(=O)NC3CCCCC3)OC[C@H]2C)n1 | 0 |
| CN(C)CCNS(=O)(=O)c1ccc(-c2ccnc3[nH]ccc23)cc1 | 26.7 |
| COc1ccc(Nc2nccc(N3CCC(NC(=O)C(C)c4ccc(Cl)cc4)CC3)n2)cc1 (stereo not given) | 33.4 |
| O=S(=O)(c1cccc(F)c1)c1ccc(Nc2ncnc3cc(Br)sc23)cc1Cl | 73.4 |
| CS(=O)(=O)CCNCc1nc(-c2ccc3ncnc(Nc4ccc5c(cnn5Cc5ccccc5)c4)c3c2)cs1 | 33.4 |
| Nc1ncnc2c1nc(-c1ccccc1)n2-c1ccccc1 | 0 |
| COc1ccc(Nc2nccc(N3CCC(NC(=O)Nc4ccc5c(c4)OCO5)C3)n2)cc1 (stereo not given) | 20 |
| CS(=O)(=O)CCNCc1nc(-c2ccc3ncnc(Nc4ccc(OCc5cccc(F)c5)c(Cl)c4)c3c2)cs1 | 0 |
| Cn1cc(-c2ccc3c(c2)CCN3C(=O)Cc2cc(F)cc(F)c2F)c2c(N)ncnc21 | 0 |
| O=c1cc(N2CCOCC2)nc2n(Cc3cccc4ccccc34)ccn12 | 0 |

| SMILES | MOTILITY REDUCTION/CYTOTOXICITY [%] |
| --- | --- |
| COc1cccc(-n2cnc3c(N)ncnc32)c1 | 0 |
| COc1ccc2nc(-c3cccc(C)n3)nc(Nc3ccncc3)c2c1 | 0 |
| O=C(Nc1n[nH]c2nc(-c3nccs3)c(Br)cc12)C1CCCC1 | 20 |
| c1ccc(Cn2cnc3cc(Nc4ncnc5ccccc45)ccc32)cc1 | 16.7 |
| Cc1ccccc1CC(=O)N1CCc2cc(-c3cn(C)c4ncnc(N)c34)ccc21 | 33.4 |
| Cc1ccc(-c2cc(-c3c[nH]nc3-c3ccccn3)ccn2)cc1 | 0 |
| COc1cc(Nc2nccc(N3CCC(NC(=O)c4cccc(NC(C)=O)c4)C3)n2)cc(OC)c1OC (stereo not given) | 33.4 |
| O=C(Nc1n[nH]c2cc(-c3ccoc3)ccc12)C1CC1 | 13.4 |
| Cc1c(Cn2c(C)nn3c(=O)cc(N4CCOC(C)C4)nc23)cccc1C(F)(F)F (stereo not given) | 0 |
| Nc1nccc(-c2ccc3c(N)n[nH]c3c2)n1 | 0 |
| Nc1ncc(-c2cn[nH]c2)c2scc(-c3ccc4c(c3)CCN4C(=O)Cc3ccccc3)c12 | 0 |
| Fc1ccc(-c2ncn(CCCN3CCOCC3)c2-c2cccnc2)cc1 | 0 |
| CC(C)N1CCC(n2cnc(-c3ccc(F)cc3)c2-c2ccnc(N)n2)CC1 | 0 |
| Cc1ccccc1Cn1ccn2c(=O)cc(N3CCOCC3)nc12 | 0 |
| c1ccc(Cn2ncc3cc(Nc4ncnc5ccccc45)ccc32)cc1 | 0 |
| COc1cccc(CC(=O)N2CCc3cc(-c4cn(C)c5ncnc(N)c45)ccc32)c1 | 0 |
| COC(=O)c1cccc(NC(=O)NC2CCN(c3ccnc(Nc4cc(OC)c(OC)c(OC)c4)n3)C2)c1 (stereo not given) | 66.7 |
| NCC(NC(=O)c1cc(-c2ccccc2)c(-c2ccnc3[nH]ccc23)s1)c1ccccc1 (stereo not given) | 0 |
| c1ccc(-c2ccc3c(Nc4ccc5[nH]ncc5c4)ccnc3c2)nc1 | 60 |
| CCn1cnc2c(NCc3ccccc3)ncnc21 | 0 |
| COc1ccc(Nc2nccc(N3CCC(NS(=O)(=O)c4ccc(NC(C)=O)cc4)C3)n2)cc1 (stereo not given) | 33.4 |
| CC(C)c1nc(-c2cccc(NS(=O)(=O)c3ccccc3)c2)c(-c2ccnc(Nc3ccc4c(c3)CN(C)CC4)n2)s1 | 86.7 |
| O=C(Nc1[nH]nc2cc(-c3cccc(F)c3F)ccc12)C1CC1 | 0 |
| Cn1cc(-c2ccc3c(c2)CCN3C(=O)Cc2cccc(C(F)(F)F)c2)c2c(N)ncnc21 | 0 |
| Nc1ncnc2[nH]c(-c3ccccc3)nc12 | 0 |
| NC(=O)c1cc(-c2ccccc2)cc2c(C3CCNCC3)c[nH]c12 | 0 |
